Laboratory results taken from patent publication EP0655506B1 (priority 1994, dated 1995).

Columns and labels:
[1] = target: T1, E. coli DNA polymerase I (large fragment, Klenow fragment), wild type (Escherichia coli, UniProt P00582); assay: Inhibition of DNA synthesis on synthetic Primer-Template A, competition of dATP and ddATP (Example 9); assay type: biochemical; conditions: in the presence of 10 µM dATP, 37°C, read-out: [ddATP] for 50% inhibition
T1 construct: The large fragment of E. coli DNA polymerase I, commonly called the Klenow fragment; made in house
Method: (§1) In this example the competition between a dNTP and a ddNTP is assayed for use at a single site in a synthetic primer-template. This assay differs from the others in that it limits the comparison of the use of the two substrates to a single site, avoiding the complication of sequence-specific variability in discrimination. […]
(§2) Each reaction mixture contains 25 pmoles each of primer and template. […] The mixtures are incubated at 37°C for 1 min (70°C for thermophilic DNA polymerases), and the reactions are initiated by the addition of 5 µl aliquots (0.01 to 1 unit) of the DNA polymerase being analyzed diluted in 20 mM TrisHCl, pH 7.5, 10 mM 2-mercaptoethanol and 0.05% bovine serum albumin. […] The disks are then dried under a heat lamp and counted in a scintillation counter in 5 ml of fluor (Opti-Fluor O, Packard). From the amount of radioactivity on each disk, the amount […] incorporated was determined. […]
(§3) All reactions are carried out with a constant amount of the DNA polymerase being analyzed; the amount of DNA polymerase should be sufficient to replicate 50% of the total dCMP residues in the single-stranded region of the template in the 10 min incubation in the presence of 10 µM dATP and the absence of ddATP. […]

[2] = target: T2, Taq DNA polymerase (unmodified DNA polymerase from Thermus aquaticus) (Thermus aquaticus, UniProt P19821); assay: as above; assay type: biochemical; conditions: in the presence of 10 µM dATP, 70°C, read-out: [ddATP] for 50% inhibition
T2 construct: to the gene that produces the full length Taq DNA polymerase; made in house
Method: as §1, §2, §3

T2 sequence (P19821 whole entry): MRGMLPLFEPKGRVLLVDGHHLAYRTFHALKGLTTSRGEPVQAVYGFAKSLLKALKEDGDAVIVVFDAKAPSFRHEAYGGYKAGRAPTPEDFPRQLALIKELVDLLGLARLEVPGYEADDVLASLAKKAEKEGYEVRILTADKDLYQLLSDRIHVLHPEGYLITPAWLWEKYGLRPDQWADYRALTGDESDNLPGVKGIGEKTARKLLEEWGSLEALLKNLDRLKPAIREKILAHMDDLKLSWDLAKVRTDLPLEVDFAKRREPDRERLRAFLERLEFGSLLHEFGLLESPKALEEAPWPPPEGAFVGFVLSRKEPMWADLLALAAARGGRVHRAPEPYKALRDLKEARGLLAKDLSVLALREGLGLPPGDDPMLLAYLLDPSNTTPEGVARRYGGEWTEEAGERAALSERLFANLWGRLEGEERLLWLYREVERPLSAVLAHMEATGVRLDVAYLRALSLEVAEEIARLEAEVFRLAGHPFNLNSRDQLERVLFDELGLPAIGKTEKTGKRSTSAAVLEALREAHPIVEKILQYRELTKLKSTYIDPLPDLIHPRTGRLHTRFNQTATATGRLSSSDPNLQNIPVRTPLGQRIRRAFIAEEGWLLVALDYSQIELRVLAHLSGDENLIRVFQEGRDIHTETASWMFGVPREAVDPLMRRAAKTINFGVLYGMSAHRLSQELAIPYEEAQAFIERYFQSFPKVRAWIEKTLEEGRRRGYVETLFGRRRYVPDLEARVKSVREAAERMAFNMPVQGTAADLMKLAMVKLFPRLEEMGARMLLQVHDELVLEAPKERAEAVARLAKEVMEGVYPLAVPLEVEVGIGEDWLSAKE
T1 sequence (P00582 324-928): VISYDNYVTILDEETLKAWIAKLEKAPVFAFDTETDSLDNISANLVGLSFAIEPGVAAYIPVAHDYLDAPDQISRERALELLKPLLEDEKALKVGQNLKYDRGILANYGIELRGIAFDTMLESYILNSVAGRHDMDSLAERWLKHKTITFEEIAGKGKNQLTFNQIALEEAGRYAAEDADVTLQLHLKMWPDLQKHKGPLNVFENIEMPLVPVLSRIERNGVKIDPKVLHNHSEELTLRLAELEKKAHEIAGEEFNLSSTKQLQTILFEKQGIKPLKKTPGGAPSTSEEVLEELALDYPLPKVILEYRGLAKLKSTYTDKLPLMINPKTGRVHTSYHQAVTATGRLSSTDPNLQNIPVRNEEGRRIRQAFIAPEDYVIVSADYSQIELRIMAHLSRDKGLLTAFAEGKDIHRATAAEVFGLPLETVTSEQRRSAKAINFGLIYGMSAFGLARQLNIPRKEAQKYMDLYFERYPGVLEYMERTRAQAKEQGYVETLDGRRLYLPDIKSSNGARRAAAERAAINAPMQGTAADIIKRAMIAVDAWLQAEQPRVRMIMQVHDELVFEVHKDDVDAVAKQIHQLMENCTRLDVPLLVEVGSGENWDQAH

Nc1ncnc2c1ncn2[C@H]1CC[C@@H](COP(=O)(O)OP(=O)(O)OP(=O)(O)O)O1 [ddATP]
IC50 [1]: > 500 µM | IC50 [2]: > 500 µM
